Laboratory results published in patent publication US9023789B2, “Amylin analogs and pharmaceutical compositions thereof” (Novo Nordisk A/S, priority 2012, dated 2015).
Numbered stars: 1 amine (or outer) side, 2 acyl side, 3 side chain; on linkers, the order of the positions; unused ones are H or OH. Bridge positions count the residues as written; N and C are the ends. Peptide text beside a SMILES is read from it. * marks the point of attachment. C20 diacid = O=C(O)CCCCCCCCCCCCCCCCCCC(=O)*; γGlu = O=C(O)[C@H](CCC(=O)[*:2])N[*:1]

Experiments:
[1] = biological target: T1, human amylin receptor (membranes from Amylin 3(a)/CRE-luc cells) (Homo sapiens, UniProt O60896+P30988); experiment: ASSAY (V) binding to the human amylin receptor (SPA, 125I-rat amylin);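 further: competition binding of cell membranes (35 ng/µL) mixed with SPA beads in 384-well plates at 40 µL total volume, read by scintillation counting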
T1 construct: expressed in transfected cells
T1 sequence (P30988 25-474): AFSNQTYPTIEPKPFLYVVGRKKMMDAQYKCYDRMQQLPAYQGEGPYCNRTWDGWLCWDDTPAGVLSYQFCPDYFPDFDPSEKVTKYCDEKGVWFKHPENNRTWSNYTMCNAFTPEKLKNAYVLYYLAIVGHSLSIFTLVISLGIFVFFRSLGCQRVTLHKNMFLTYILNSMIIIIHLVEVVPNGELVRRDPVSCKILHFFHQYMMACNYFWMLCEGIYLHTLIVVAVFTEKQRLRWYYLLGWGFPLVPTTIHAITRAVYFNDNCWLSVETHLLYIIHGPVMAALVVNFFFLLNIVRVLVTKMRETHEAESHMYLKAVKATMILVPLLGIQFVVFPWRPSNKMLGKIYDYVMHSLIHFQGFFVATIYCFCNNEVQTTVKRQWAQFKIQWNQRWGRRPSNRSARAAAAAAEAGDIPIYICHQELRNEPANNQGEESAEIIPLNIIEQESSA
T1 sequence (O60896 24-148 partner): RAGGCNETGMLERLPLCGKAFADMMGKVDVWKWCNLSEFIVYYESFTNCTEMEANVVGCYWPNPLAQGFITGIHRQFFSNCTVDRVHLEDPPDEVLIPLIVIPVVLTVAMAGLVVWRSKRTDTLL

[2] = biological target: T2, human amylin 3(a) receptor (human calcitonin receptor + RAMP-3) in BHK570 cells (Homo sapiens, UniProt O60896+P30988); experiment: ASSAY (II)a functional assay, human amylin receptor (CRE luciferase); format: cell-based
T2 construct: expressed in transfected cells
Method in brief: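 Receptor activation is measured as cAMP-driven CRE-luciferase expression in BHK cells expressing the calcitonin receptor, with RAMP-3 co-expressed to form the amylin 3(a) receptor. Cells are exposed to compound for 3 hours at 37° C, and luciferase is then quantified by luminescence.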

[3] = biological target: T3, rat amylin receptor (rat calcitonin receptor + rat RAMP 3) (Rattus norvegicus, UniProt P32214+Q9JJ73); experiment: ASSAY (VI) binding to the rat amylin receptor; conditions: for IC50: binding to rat amylin receptor, read-out: rAmylin-R bind IC50
T3 construct: expressed in transfected cells; host or cells: BHK tk'ts 13 (transient, FuGENE 6), membranes
T3 sequence (P32214 25-479 isoform P32214-2 limits assumed): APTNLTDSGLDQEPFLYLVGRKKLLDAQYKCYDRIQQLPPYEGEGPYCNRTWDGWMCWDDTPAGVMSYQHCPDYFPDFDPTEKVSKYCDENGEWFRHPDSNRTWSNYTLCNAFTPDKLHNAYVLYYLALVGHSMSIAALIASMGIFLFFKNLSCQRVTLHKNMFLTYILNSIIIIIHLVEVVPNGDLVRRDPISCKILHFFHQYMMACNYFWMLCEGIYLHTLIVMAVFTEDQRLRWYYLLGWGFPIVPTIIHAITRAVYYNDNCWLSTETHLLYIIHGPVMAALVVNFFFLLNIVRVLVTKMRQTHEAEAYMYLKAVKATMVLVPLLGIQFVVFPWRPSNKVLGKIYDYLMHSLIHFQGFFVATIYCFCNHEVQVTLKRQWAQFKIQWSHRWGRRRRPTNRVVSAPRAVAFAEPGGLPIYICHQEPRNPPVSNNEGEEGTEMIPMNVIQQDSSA
T3 sequence (Q9JJ73 23-147 partner): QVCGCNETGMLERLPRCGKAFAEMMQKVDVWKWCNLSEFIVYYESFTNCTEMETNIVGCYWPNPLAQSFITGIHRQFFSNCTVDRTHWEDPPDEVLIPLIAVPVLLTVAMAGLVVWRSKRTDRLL
Method in brief: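 Membranes for this rat amylin receptor binding assay came from BHK tk′ts 13 cells. The cells were transiently transfected with rat calcitonin receptor using the FuGENE® 6 reagent from Roche, as the manufacturer recommends. The cells were collected approximately 48 hours after transfection, and membranes were then prepared.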

[4] = Table 5, selectivity, hCTR bind IC50 / hAmylin-R bind IC50
[5] = Table 5a, selectivity, hCTR bind IC50 / hAmylin-R bind IC50
[6] = Table 5b, selectivity, hCTR bind IC50 / hAmylin-R bind IC50
[7] = Table 5c, selectivity, hCTR bind IC50 / hAmylin-R bind IC50
[8] = Table 7, human binding selectivity, included for comparison
[9] = Table 7a (preferred compounds), human binding selectivity, included for comparison
[10] = ratio of human calcitonin receptor binding IC50 to human amylin receptor binding IC50
[11] = hCTR funct. EC50 divided by hAmylin-R funct. EC50
[12] = hCTR funct. EC50 over hAmylin-R funct. EC50
[13] = human functional selectivity: hCTR funct. EC50 / hAmylin-R funct. EC50
[14] = Table 7, rat binding selectivity, rCTR IC50 / rAmylin-R IC50
[15] = Table 7a (preferred compounds), rat binding selectivity, rCTR IC50 / rAmylin-R IC50
[16] = ratio of rCTR bind IC50 to rAmylin-R bind IC50

| Ratio hCT/hAmylin binding [1, 4] | Ratio hCT/hAmylin binding [1, 5] | Ratio hCT/hAmylin binding [1, 6] | Ratio hCT/hAmylin binding [1, 7] | Ratio hCT/hAmylin binding [1, 8] | Ratio hCT/hAmylin binding [1, 9] | Ratio hCT/hAmylin binding [1, 10] | Ratio hCT/hAmylin funct. [2, 11] | Ratio hCT/hAmylin funct. [2, 12] | Ratio hCT/hAmylin funct. [2, 13] | IC50 ([3]; Table 7) [nM] | Ratio rCT/rAmylin binding [3, 14] | Ratio rCT/rAmylin binding [3, 15] | Ratio rCT/rAmylin binding [3, 16] | Compound |
| --- | --- | --- | --- | --- | --- | --- | --- | --- | --- | --- | --- | --- | --- | --- |
| 65.3 | 65.3 | 65.3 | 65.3 | 65.3 | 65.3 | 65.3 | 6.8 | 6.8 | 6.8 | 11.2 | 27.7 | 27.7 | 27.7 | CC[C@H](C)[C@H](NC(=O)[C@H](C)NC(=O)CNC(=O)[C@H](Cc1ccccc1)NC(=O)[C@H](CC(N)=O)NC(=O)[C@@H]1CCCN1C(=O)[C@H](CO)NC(=O)[C@H](CO)NC(=O)[C@H](Cc1c[nH]cn1)NC(=O)[C@H](CCCNC(=N)N)NC(=O)[C@H](CC(C)C)NC(=O)[C@H](Cc1ccccc1)NC(=O)[C@H](Cc1c[nH]cn1)NC(=O)[C@H](C)NC(=O)[C@H](CC(C)C)NC(=O)[C@H](CCCNC(=N)N)NC(=O)[C@H](CCC(N)=O)NC(=O)[C@@H](NC(=O)[C@H](C)NC(=O)[C@@H]1CSSC[C@H](NC(=O)[C@H](CCCNC(=N)N)NC(=O)CNC(=O)CC[C@H](NC(=O)CCCCCCCCCCCCCCCCCCC(=O)O)C(=O)O)C(=O)N[C@@H](CC(N)=O)C(=O)N[C@@H]([C@@H](C)O)C(=O)N[C@@H](C)C(=O)N[C@@H]([C@@H](C)O)C(=O)N1)[C@@H](C)O)C(=O)N1CCC[C@H]1C(=O)N[C@@H](CO)C(=O)N[C@@H](CO)C(=O)N[C@H](C(=O)N[C@@H](CC(N)=O)C(=O)N[C@H](C(=O)NCC(=O)N[C@@H](Cc1c[nH]cn1)C(=O)N[C@@H](CC(N)=O)C(=O)N[C@H](C(=O)N[C@@H](Cc1ccc(O)cc1)C(N)=O)[C@@H](C)O)C(C)C)[C@@H](C)O [Example 100] ({C20 diacid-γGlu}-GRCNTATCATQRLAHFLRHSSPNFGAIPSSTNVGHNTY-NH2; disulfide 3-8 (inferred)) |
| 74.1 | 74.1 | 74.1 | 74.1 | 74.1 | 74.1 | 74.1 | 19.5 | 19.5 | 19.5 | 0.137 | 175.5 | 175.5 | 175.5 | CC[C@H](C)[C@H](NC(=O)[C@H](C)NC(=O)CNC(=O)[C@H](Cc1ccccc1)NC(=O)[C@H](CC(N)=O)NC(=O)[C@@H]1CCCN1C(=O)[C@H](CO)NC(=O)[C@H](CO)NC(=O)[C@H](Cc1c[nH]cn1)NC(=O)[C@H](CCCNC(=N)N)NC(=O)[C@H](CC(C)C)NC(=O)[C@H](Cc1ccccc1)NC(=O)[C@H](CC(N)=O)NC(=O)[C@H](C)NC(=O)[C@H](CC(C)C)NC(=O)[C@H](CCCNC(=N)N)NC(=O)[C@H](CCC(N)=O)NC(=O)[C@@H](NC(=O)[C@H](C)NC(=O)[C@@H]1CSSC[C@H](NC(=O)[C@@H](N)CCCCNC(=O)COCCOCCNC(=O)COCCOCCNC(=O)CC[C@H](NC(=O)CCCCCCCCCCCCCCCCCCC(=O)O)C(=O)O)C(=O)N[C@@H](CC(N)=O)C(=O)N[C@@H]([C@@H](C)O)C(=O)N[C@@H](C)C(=O)N[C@@H]([C@@H](C)O)C(=O)N1)[C@@H](C)O)C(=O)N1CCC[C@H]1C(=O)N[C@@H](CO)C(=O)N[C@@H](CO)C(=O)N[C@H](C(=O)N[C@@H](CC(N)=O)C(=O)N[C@H](C(=O)NCC(=O)N1CCC[C@H]1C(=O)N[C@@H](CC(N)=O)C(=O)N[C@H](C(=O)N[C@@H](Cc1ccc(O)cc1)C(N)=O)[C@@H](C)O)C(C)C)[C@@H](C)O [Example 98] |
